Reference: patent publication US20240199645A1, “POLYMORPHIC FORMS OF (S)-12-FLUORO-4-(1-METHYL-1H-PYRAZOL-5-YL)-7A,8,13,14-TETRAHYDRO-7H-[1,2,4]TRIAZOLO[4',3':1,6]PYRIDO[3,2-B]BENZOFURO[4,3-FG][1,4]OXAZONINE” (Fulcrum Therapeutics, Inc., priority 2021, published 2024)

Assay: Dynamic vapor sorption (DVS) analysis
Type: physicochemical
Details: between about 2 to about 92% relative humidity (RH); at 25° C.
Description: Dynamic vapor sorption (DVS) analysis was performed using a DVS Intrinsic 1. The sample (25 mg) was loaded into a sample pan, suspended from a microbalance and exposed to a humidified stream of nitrogen gas. The sample was held for a minimum of 5 min at each level and only progressed to the next humidity level if there was <0.002% change in weight between measurements (interval: 60 seconds) or 240 min had elapsed.

Row | SMILES | DVS mass change expressed as equivalents of water | dynamic vapor sorption (DVS) profile, mass change
1 | Cn1nccc1-c1cc2c(n3cnnc13)NCc1c(F)ccc3c1C(CO3)CO2 (stereo in doubt) [Form A, (S)-12-fluoro-4-(1-methyl-1H-pyrazol-5-yl)-7a,8,13,14-tetrahydro-7H-[1,2,4]triazolo[4′,3′:1,6]pyrido[3,2-b]benzofuro[4,3-fg][1,4]oxazonine] | about 1.48 eq. water | about 6.34 wt. %
2 | Cn1nccc1-c1cc2c(n3cnnc13)NCc1c(F)ccc3c1C(CO3)CO2 (stereo in doubt) [Form E, (S)-12-fluoro-4-(1-methyl-1H-pyrazol-5-yl)-7a,8,13,14-tetrahydro-7H-[1,2,4]triazolo[4′,3′:1,6]pyrido[3,2-b]benzofuro[4,3-fg][1,4]oxazonine] | – | about 0.23 wt. %
3 | Cn1nccc1-c1cc2c(n3cnnc13)NCc1c(F)ccc3c1C(CO3)CO2 (stereo in doubt) [Form U, (S)-12-fluoro-4-(1-methyl-1H-pyrazol-5-yl)-7a,8,13,14-tetrahydro-7H-[1,2,4]triazolo[4′,3′:1,6]pyrido[3,2-b]benzofuro[4,3-fg][1,4]oxazonine] | – | about 0.38 wt. %
